In PubChem BioAssay AID248 (DTP/NCI, 2004):
Inconclusive results and toxic doses are left out. Cut-off read from the data, not from the text of the source: active = T/C of 150% or more; inactive = T/C below 125%. Peptide text beside a SMILES is read from it. * marks the point of attachment. Cbz = O=C(OCc1ccccc1)*; Boc = CC(C)(C)OC(=O)*; Bn = c1ccc(C*)cc1

System: L1210 leukemia ip in BDF1 mice, survival T/C
Assay: NCI In Vivo Anticancer Drug Screen. Data for tumor model L1210 Leukemia (intraperitoneal) in B6D2F1 (BDF1) mice
Settings: higher = longer survival
Outline: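 Transplanted-tumor mice were given test agent; controls received vehicle only. Survival readings from the two groups were divided (treated over control).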

[1] = endpoint: mean survival time, dose: 50.0 mg/kg/injection, schedule: Q01DX001 (ip), vehicle: saline
[2] = endpoint: mean survival time, dose: 100.0 mg/kg/injection, schedule: Q01DX001 (ip), vehicle: saline
[3] = endpoint: mean survival time, dose: 100.0 mg/kg/injection, schedule: Q04DX002 (ip), vehicle: Klucel (hydroxypropylcellulose) (HPC)
[4] = endpoint: mean survival time, dose: 200.0 mg/kg/injection, schedule: Q01DX001 (ip), vehicle: saline
[5] = endpoint: mean survival time, dose: 400.0 mg/kg/injection, schedule: Q01DX001 (ip), vehicle: saline
[6] = endpoint: mean survival time, dose: 100.0 mg/kg/injection, schedule: Q04DX003 (ip), vehicle: saline with Tween-80
[7] = endpoint: mean survival time, dose: 200.0 mg/kg/injection, schedule: Q04DX003 (ip), vehicle: saline with Tween-80
[8] = endpoint: mean survival time, dose: 400.0 mg/kg/injection, schedule: Q04DX003 (ip), vehicle: saline with Tween-80
[9] = endpoint: mean survival time, dose: 100.0 mg/kg/injection, schedule: Q01DX009 (ip), vehicle: Klucel (hydroxypropylcellulose) (HPC)
[10] = endpoint: mean survival time, dose: 100.0 mg/kg/injection, schedule: Q04DX003 (ip), vehicle: Klucel (hydroxypropylcellulose) (HPC)
[11] = endpoint: mean survival time, dose: 200.0 mg/kg/injection, schedule: Q04DX003 (ip), vehicle: Klucel (hydroxypropylcellulose) (HPC)
[12] = endpoint: mean survival time, dose: 400.0 mg/kg/injection, schedule: Q04DX003 (ip), vehicle: Klucel (hydroxypropylcellulose) (HPC)
[13] = endpoint: mean survival time, dose: 100.0 mg/kg/injection, schedule: Q04DX002 (ip), vehicle: saline with Tween-80
[14] = endpoint: mean survival time, dose: 200.0 mg/kg/injection, schedule: Q04DX002 (ip), vehicle: saline with Tween-80
[15] = endpoint: mean survival time, dose: 400.0 mg/kg/injection, schedule: Q04DX002 (ip), vehicle: saline with Tween-80
[16] = endpoint: mean survival time, dose: 100.0 mg/kg/injection, schedule: Q04DX003 (ip), vehicle: DMSO
[17] = endpoint: mean survival time, dose: 200.0 mg/kg/injection, schedule: Q04DX003 (ip), vehicle: DMSO
[18] = endpoint: mean survival time, dose: 400.0 mg/kg/injection, schedule: Q04DX003 (ip), vehicle: DMSO

Measured: T/C

CCOC(=O)CCCc1ccc(N/N=N/c2nc[nH]c2C(N)=O)cc1
inactive: endpoint: mean survival time, dose: 25.0 mg/kg/injection, schedule: Q01DX Z (ip), vehicle: carboxymethylcellulose (CMC) 94 % of control | endpoint: mean survival time, dose: 50.0 mg/kg/injection, schedule: Q01DX Z (ip), vehicle: carboxymethylcellulose (CMC) 88 % of control | endpoint: mean survival time, dose: 75.0 mg/kg/injection, schedule: Q01DX Z (ip), vehicle: carboxymethylcellulose (CMC) 88 % of control | endpoint: mean survival time, dose: 100.0 mg/kg/injection, schedule: Q01DX Z (ip), vehicle: carboxymethylcellulose (CMC) 103 % of control | endpoint: mean survival time, dose: 200.0 mg/kg/injection, schedule: Q01DX Z (ip), vehicle: carboxymethylcellulose (CMC) 88 % of control

CCCCCCCCC1OC1CCCCCCCC(=O)O (stereo unspecified)
inactive: endpoint: mean survival time, dose: 25.0 mg/kg/injection, schedule: Q04DX002 (ip), vehicle: Klucel (hydroxypropylcellulose) (HPC) 108 % of control | [1] 90 % of control | endpoint: mean survival time, dose: 50.0 mg/kg/injection, schedule: Q04DX002 (ip), vehicle: Klucel (hydroxypropylcellulose) (HPC) 101 % of control | [2] 97 % of control | [3] 101 % of control | [4] 101 % of control | [5] 90 % of control

N/C(=N\c1nc(-c2ccccc2)cc(-c2ccccc2O)n1)N1CCOCC1
inactive: [3] 98 % of control | endpoint: mean survival time, dose: 200.0 mg/kg/injection, schedule: Q04DX002 (ip), vehicle: Klucel (hydroxypropylcellulose) (HPC) 98 % of control | endpoint: mean survival time, dose: 400.0 mg/kg/injection, schedule: Q04DX002 (ip), vehicle: Klucel (hydroxypropylcellulose) (HPC) 95 % of control

CC1N=C(c2ccccc2)C(c2ccccc2)=NC1C (stereo unspecified)
inactive: [6] 94 % of control | [7] 101 % of control | [8] 101 % of control

Nc1[nH]c(=O)ncc1-c1ccc(Cl)cc1
inactive: endpoint: mean survival time, dose: 50.0 mg/kg/injection, schedule: Q01DX009 (ip), vehicle: Klucel (hydroxypropylcellulose) (HPC) 96 % of control | [9] 100 % of control

CNC(=Nc1ccccc1)c1ccc(NC(=O)c2ccc(C(=O)Nc3ccc(C(=Nc4ccccc4)NC)cc3)cc2)cc1
inactive: endpoint: mean survival time, dose: 15.0 mg/kg/injection, schedule: Q01DX Z (ip), vehicle: saline 100 % of control | endpoint: mean survival time, dose: 30.0 mg/kg/injection, schedule: Q01DX Z (ip), vehicle: saline 105 % of control | endpoint: mean survival time, dose: 60.0 mg/kg/injection, schedule: Q01DX Z (ip), vehicle: saline 102 % of control

O=C1C=C[C@H](O)[C@@]2(CO)O[C@@H]12
inactive: endpoint: median survival time, dose: 0.62 mg/kg/injection, schedule: Q01DX009 (ip), vehicle: saline with Tween-80 101 % of control | endpoint: median survival time, dose: 1.25 mg/kg/injection, schedule: Q01DX009 (ip), vehicle: saline with Tween-80 108 % of control | endpoint: median survival time, dose: 2.5 mg/kg/injection, schedule: Q01DX009 (ip), vehicle: saline with Tween-80 113 % of control | endpoint: median survival time, dose: 5.0 mg/kg/injection, schedule: Q01DX009 (ip), vehicle: saline with Tween-80 120 % of control | endpoint: median survival time, dose: 10.0 mg/kg/injection, schedule: Q01DX009 (ip), vehicle: saline with Tween-80 120 % of control

C/C=C/c1cc(OC)cc(C2(O)OC(=O)c3c(OC)cccc32)c1OC (stereo unspecified)
inactive: [6] 105 % of control | [7] 94 % of control | [8] 100 % of control

COc1cc(C)c(C)cc1C(C)C(C)C(=O)O (stereo unspecified)
inactive: [10] 97 % of control | [11] 98 % of control | [12] 98 % of control

Cc1cccc(C)c1OC(=O)NCCCCCCNC(=O)Oc1c(C)cccc1C
inactive: [9] 102 % of control | endpoint: mean survival time, dose: 200.0 mg/kg/injection, schedule: Q01DX009 (ip), vehicle: Klucel (hydroxypropylcellulose) (HPC) 92 % of control | endpoint: mean survival time, dose: 400.0 mg/kg/injection, schedule: Q01DX009 (ip), vehicle: Klucel (hydroxypropylcellulose) (HPC) 92 % of control

CCOC(=O)c1ccc(Nc2sc(C(=O)c3ccccc3)c(N)c2C#N)cc1
inactive: [13] 120 % of control | [14] 92 % of control | [15] 89 % of control

COC(=O)C(Cc1ccc(O)cc1)NC(=O)C(CSCc1ccccc1)NC(=O)OCc1ccccc1 (stereo unspecified) (Cbz-Cys(Bn)-Tyr-OMe; configuration not given here)
inactive: [16] 94 % of control | [17] 98 % of control | [18] 91 % of control

COC(=O)CNC(=O)C1CCCN1C(=O)C(Cc1c[nH]c2ccccc12)NC(=O)OC(C)(C)C (stereo not drawn) (Boc-Trp-Pro-Gly-OMe; configuration not given here)
inactive: endpoint: mean survival time, dose: 100.0 mg/kg/injection, schedule: Q01DX009 (ip), vehicle: saline with Tween-80 88 % of control | endpoint: mean survival time, dose: 200.0 mg/kg/injection, schedule: Q01DX009 (ip), vehicle: saline with Tween-80 100 % of control | endpoint: mean survival time, dose: 400.0 mg/kg/injection, schedule: Q01DX009 (ip), vehicle: saline with Tween-80 100 % of control

C[N+](C)(C)Cc1ccccc1/C(=N\O)c1ccccc1
inactive: endpoint: mean survival time, dose: 10.0 mg/kg/injection, schedule: Q01DX001 (ip), vehicle: carboxymethylcellulose (CMC) 96 % of control | endpoint: mean survival time, dose: 20.0 mg/kg/injection, schedule: Q01DX001 (ip), vehicle: carboxymethylcellulose (CMC) 101 % of control

Cc1ccc2c(C)c(C)c(=O)n(C)c2c1
inactive: endpoint: mean survival time, dose: 100.0 mg/kg/injection, schedule: Q01DX001 (ip), vehicle: other 104 % of control | endpoint: mean survival time, dose: 200.0 mg/kg/injection, schedule: Q01DX001 (ip), vehicle: other 98 % of control | endpoint: mean survival time, dose: 400.0 mg/kg/injection, schedule: Q01DX001 (ip), vehicle: other 95 % of control

NCCNCCN
inactive: [1] 102 % of control | [2] 116 % of control | [4] 104 % of control | [5] 108 % of control

CN(CCN1CCCCC1)C(=O)C(O)(c1ccccc1)C1CCCCC1 (stereo unspecified)
inactive: endpoint: mean survival time, dose: 75.0 mg/kg/injection, schedule: Q01DX001 (ip), vehicle: saline 96 % of control | endpoint: mean survival time, dose: 150.0 mg/kg/injection, schedule: Q01DX001 (ip), vehicle: saline 97 % of control

CCN(CC)c1cccc(OC(=O)NC)c1
inactive: endpoint: mean survival time, dose: 0.75 mg/kg/injection, schedule: Q01DX009 (ip), vehicle: saline with Tween-80 91 % of control | endpoint: mean survival time, dose: 1.5 mg/kg/injection, schedule: Q01DX009 (ip), vehicle: saline with Tween-80 94 % of control | endpoint: mean survival time, dose: 3.0 mg/kg/injection, schedule: Q01DX009 (ip), vehicle: saline with Tween-80 94 % of control

Cc1ccc(S(=O)(=O)OC2COC3C(OS(=O)(=O)c4ccc(C)cc4)COC23)cc1 (stereo unspecified)
inactive: [2] 93 % of control | [16] 103 % of control | [4] 96 % of control | [17] 97 % of control | [5] 93 % of control | [18] 111 % of control

O=C(O)CNC(=O)c1cccc(Cl)c1
inactive: [13] 95 % of control | [14] 95 % of control | [15] 95 % of control

O=CNc1cc([N+](=O)[O-])cc([N+](=O)[O-])c1O
inactive: [10] 104 % of control | [11] 100 % of control | [12] 93 % of control

N#C/C(=C\c1ccco1)C1CCCCC1
inactive: endpoint: mean survival time, dose: 100.0 mg/kg/injection, schedule: Q04DX002 (ip), vehicle: other 86 % of control | endpoint: mean survival time, dose: 200.0 mg/kg/injection, schedule: Q04DX002 (ip), vehicle: other 104 % of control

O=S(=O)(/N=[N+](\[O-])c1ccccc1)c1ccccc1
inactive: [2] 103 % of control | [4] 100 % of control | [5] 103 % of control

O=c1cc(-c2ccccc2)oc2cc(O)cc(O)c12
inactive: [1] 100 % of control | [2] 100 % of control | [4] 100 % of control | [5] 100 % of control

O=C1C=C(Cl)C(=O)c2ccccc21
inactive: endpoint: mean survival time, dose: 9.38 mg/kg/injection, schedule: Q01DX001 (ip), vehicle: steriod suspending solution 91 % of control

CC(=O)N(CCCc1ccccc1)C(C)(C)C
inactive: endpoint: mean survival time, dose: 50.0 mg/kg/injection, schedule: Q01DX009 (ip), vehicle: saline 104 % of control | [2] 110 % of control | endpoint: mean survival time, dose: 100.0 mg/kg/injection, schedule: Q01DX009 (ip), vehicle: saline 110 % of control | [4] 114 % of control

C=C(Br)CN(CC)CC
inactive: endpoint: mean survival time, dose: 12.5 mg/kg/injection, schedule: Q01DX009 (ip), vehicle: Klucel (hydroxypropylcellulose) (HPC) 90 % of control | endpoint: mean survival time, dose: 12.5 mg/kg/injection, schedule: Q04DX003 (ip), vehicle: Klucel (hydroxypropylcellulose) (HPC) 100 % of control | endpoint: mean survival time, dose: 25.0 mg/kg/injection, schedule: Q01DX009 (ip), vehicle: Klucel (hydroxypropylcellulose) (HPC) 91 % of control | endpoint: mean survival time, dose: 25.0 mg/kg/injection, schedule: Q04DX003 (ip), vehicle: Klucel (hydroxypropylcellulose) (HPC) 107 % of control | endpoint: mean survival time, dose: 50.0 mg/kg/injection, schedule: Q04DX003 (ip), vehicle: Klucel (hydroxypropylcellulose) (HPC) 96 % of control
